What was measured:
Assay in all cases: radiometric filter-binding kinase assay, Kinase HotSpot
Details in all cases: compound 0.5 µM; ATP 10 µM
AKT2 (human) = AKT2 (human) (UniProt P31751)
BMX (human) = BMX (human) (UniProt P51813)
CDK5 CDK5R1 p25 (human) = CDK5 CDK5R1 p25 (human) (UniProt Q00535+Q15078)
CDK6 CCND3 (human) = CDK6 CCND3 (human) (UniProt P30281+Q00534)
CHEK1 (human) = CHEK1 (human) (UniProt O14757)
CSNK1G2 (human) = CSNK1G2 (human) (UniProt P78368)
DYRK2 (human) = DYRK2 (human) (UniProt Q92630)
Sequence of DYRK2 (human) (Q92630 whole entry, looked up): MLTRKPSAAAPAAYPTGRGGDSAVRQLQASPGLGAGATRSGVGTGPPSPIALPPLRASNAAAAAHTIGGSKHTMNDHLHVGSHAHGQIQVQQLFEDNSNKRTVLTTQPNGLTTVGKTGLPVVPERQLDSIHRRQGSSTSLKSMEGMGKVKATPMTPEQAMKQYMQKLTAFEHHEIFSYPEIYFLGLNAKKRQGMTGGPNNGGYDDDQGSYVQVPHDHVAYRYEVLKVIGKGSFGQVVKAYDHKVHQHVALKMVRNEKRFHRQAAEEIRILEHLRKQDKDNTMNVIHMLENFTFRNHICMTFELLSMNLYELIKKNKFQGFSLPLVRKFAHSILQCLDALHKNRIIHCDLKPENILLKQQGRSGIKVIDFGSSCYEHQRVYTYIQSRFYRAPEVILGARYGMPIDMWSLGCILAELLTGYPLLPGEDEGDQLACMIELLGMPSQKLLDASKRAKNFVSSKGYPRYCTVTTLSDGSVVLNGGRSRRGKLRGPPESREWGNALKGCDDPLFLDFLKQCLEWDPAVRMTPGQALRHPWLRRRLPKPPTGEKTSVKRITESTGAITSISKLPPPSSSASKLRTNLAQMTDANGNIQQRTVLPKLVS

EPHA5 (human) = EPHA5 (human) (UniProt P54756)
EPHA7 (human) = EPHA7 (human) (UniProt Q15375)
EPHB3 (human) = EPHB3 (human) (UniProt P54753)
Sequence of EPHB3 (human) (P54753 whole entry, looked up): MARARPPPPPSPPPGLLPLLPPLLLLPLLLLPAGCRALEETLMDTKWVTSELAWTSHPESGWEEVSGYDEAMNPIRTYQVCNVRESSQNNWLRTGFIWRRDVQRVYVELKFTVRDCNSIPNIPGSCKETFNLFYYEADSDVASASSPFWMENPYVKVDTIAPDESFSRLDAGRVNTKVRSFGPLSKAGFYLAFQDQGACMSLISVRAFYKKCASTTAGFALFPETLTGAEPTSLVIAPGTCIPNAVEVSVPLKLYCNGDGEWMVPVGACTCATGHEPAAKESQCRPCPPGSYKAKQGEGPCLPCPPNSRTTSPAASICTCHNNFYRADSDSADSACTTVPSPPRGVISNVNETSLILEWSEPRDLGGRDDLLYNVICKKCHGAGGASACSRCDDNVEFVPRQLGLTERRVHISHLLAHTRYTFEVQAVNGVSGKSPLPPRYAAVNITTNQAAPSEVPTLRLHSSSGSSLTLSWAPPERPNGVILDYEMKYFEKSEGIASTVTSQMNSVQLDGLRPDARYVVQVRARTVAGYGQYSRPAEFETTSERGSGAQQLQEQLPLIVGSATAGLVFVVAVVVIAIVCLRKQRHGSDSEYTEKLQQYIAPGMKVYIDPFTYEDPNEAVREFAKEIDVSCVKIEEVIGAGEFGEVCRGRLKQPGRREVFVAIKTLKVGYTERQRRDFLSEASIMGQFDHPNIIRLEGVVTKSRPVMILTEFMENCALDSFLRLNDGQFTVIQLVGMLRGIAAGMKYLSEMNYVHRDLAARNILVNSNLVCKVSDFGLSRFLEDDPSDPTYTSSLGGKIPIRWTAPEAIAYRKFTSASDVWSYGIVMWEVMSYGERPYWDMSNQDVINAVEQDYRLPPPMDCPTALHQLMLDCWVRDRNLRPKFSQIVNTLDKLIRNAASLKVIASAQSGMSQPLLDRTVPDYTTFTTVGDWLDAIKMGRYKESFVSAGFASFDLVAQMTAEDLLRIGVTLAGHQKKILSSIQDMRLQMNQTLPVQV

FYN (human) = FYN (human) (UniProt P06241)
HCK (human) = HCK (human) (UniProt P08631)
HIPK3 (human) = HIPK3 (human) (UniProt Q9H422)
MAP3K8 (human) = MAP3K8 (human) (UniProt P41279)
MAP4K4 (human) = MAP4K4 (human) (UniProt O95819)
MAPK3 (human) = MAPK3 (human) (UniProt P27361)
MARK3 (human) = MARK3 (human) (UniProt P27448)
Sequence of MARK3 (human) (P27448 whole entry, looked up): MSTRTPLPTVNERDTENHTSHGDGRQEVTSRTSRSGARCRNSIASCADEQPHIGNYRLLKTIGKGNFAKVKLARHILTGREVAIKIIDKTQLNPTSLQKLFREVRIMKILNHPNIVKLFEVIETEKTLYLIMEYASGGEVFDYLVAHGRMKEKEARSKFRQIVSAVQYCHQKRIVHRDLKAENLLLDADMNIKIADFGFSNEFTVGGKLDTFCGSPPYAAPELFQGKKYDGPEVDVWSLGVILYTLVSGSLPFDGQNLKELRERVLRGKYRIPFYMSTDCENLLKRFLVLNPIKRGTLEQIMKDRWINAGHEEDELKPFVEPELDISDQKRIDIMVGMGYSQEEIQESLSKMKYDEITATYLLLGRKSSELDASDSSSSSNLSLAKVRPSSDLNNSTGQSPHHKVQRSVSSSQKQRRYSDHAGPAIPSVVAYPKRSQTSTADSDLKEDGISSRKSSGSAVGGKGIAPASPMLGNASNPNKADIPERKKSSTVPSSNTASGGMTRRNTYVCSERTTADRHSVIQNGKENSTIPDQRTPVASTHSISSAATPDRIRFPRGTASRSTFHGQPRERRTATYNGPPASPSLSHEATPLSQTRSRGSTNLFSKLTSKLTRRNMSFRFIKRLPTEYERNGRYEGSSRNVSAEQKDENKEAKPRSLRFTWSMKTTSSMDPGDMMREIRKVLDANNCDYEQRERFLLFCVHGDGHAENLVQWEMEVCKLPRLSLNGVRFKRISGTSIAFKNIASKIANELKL

MARK4 (human) = MARK4 (human) (UniProt Q96L34)
Sequence of MARK4 (human) (Q96L34 whole entry, looked up): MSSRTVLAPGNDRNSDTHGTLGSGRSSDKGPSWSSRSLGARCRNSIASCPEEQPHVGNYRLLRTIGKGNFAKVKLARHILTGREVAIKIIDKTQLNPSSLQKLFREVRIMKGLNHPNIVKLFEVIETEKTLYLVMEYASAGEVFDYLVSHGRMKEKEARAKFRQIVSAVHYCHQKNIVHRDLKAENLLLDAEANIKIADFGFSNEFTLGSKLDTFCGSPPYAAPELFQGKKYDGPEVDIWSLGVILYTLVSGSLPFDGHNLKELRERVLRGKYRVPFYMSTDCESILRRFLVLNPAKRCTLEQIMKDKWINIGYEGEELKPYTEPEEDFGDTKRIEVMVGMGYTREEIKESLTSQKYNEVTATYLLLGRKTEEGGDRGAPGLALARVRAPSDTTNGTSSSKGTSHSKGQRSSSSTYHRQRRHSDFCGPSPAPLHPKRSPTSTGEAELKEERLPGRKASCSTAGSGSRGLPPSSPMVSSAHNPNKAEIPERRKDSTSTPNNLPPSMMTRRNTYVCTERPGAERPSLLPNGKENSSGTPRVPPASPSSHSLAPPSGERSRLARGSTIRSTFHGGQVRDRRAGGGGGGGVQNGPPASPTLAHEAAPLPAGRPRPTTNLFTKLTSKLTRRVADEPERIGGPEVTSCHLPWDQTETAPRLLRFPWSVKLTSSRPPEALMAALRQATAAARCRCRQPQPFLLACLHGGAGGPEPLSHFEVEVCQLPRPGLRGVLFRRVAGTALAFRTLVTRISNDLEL

MATK (human) = MATK (human) (UniProt P42679)
MELK (human) = MELK (human) (UniProt Q14680)
MET (human) = MET (human) (UniProt P08581)
Sequence of MET (human) (P08581 whole entry, looked up): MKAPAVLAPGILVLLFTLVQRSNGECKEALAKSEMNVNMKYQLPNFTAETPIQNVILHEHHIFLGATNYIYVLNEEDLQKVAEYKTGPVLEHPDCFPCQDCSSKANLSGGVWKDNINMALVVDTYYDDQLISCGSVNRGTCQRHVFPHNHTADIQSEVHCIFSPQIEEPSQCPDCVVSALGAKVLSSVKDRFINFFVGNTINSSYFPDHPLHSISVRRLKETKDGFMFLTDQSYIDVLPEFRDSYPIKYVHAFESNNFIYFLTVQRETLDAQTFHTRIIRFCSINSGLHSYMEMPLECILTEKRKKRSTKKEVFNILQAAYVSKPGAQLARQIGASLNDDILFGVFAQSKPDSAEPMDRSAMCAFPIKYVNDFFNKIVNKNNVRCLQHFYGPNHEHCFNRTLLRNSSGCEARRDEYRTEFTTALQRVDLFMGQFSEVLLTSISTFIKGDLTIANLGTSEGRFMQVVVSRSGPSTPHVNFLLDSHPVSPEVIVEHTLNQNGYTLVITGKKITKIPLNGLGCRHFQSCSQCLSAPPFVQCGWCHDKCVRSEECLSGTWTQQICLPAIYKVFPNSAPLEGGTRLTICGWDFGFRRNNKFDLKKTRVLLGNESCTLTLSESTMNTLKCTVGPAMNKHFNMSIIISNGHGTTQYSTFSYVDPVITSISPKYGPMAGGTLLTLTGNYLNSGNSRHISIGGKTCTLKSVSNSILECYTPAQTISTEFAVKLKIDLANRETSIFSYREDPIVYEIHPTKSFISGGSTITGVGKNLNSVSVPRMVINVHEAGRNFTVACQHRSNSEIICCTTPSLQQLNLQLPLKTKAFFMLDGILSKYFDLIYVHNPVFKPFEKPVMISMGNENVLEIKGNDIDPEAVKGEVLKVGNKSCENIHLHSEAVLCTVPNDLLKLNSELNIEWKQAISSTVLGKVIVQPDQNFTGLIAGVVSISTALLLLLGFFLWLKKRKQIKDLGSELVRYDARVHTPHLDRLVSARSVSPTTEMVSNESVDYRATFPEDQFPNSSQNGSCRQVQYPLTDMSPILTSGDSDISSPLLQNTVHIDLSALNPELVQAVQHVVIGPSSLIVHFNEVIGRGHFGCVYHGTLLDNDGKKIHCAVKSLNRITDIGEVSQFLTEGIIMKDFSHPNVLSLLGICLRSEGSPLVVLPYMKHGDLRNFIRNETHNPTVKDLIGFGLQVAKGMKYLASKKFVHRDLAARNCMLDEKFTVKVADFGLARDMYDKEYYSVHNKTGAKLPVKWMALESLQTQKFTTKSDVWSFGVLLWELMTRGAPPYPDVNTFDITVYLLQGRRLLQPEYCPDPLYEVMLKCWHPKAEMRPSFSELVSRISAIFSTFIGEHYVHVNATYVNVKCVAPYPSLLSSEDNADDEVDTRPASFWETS

[1] = tested on: MKNK1 (human), Q9BUB5 [T385D; 165-205 del]
MKNK2 (human) = MKNK2 (human) (UniProt Q9HBH9)
Sequence of MKNK2 (human) (Q9HBH9 whole entry, looked up): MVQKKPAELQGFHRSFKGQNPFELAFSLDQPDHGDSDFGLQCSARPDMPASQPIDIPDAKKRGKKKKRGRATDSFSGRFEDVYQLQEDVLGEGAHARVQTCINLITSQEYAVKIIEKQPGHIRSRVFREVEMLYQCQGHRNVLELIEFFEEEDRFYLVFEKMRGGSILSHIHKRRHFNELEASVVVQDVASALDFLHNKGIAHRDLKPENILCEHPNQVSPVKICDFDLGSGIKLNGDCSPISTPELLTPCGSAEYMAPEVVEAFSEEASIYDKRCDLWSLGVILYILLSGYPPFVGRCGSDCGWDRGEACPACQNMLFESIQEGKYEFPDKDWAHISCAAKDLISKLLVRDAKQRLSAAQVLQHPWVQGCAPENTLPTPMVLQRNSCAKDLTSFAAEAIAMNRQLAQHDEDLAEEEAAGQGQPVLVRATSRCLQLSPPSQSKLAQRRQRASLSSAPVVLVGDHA

MST4 (human) = MST4 (human) (UniProt Q9P289)
NEK11 (human) = NEK11 (human) (UniProt Q8NG66)
NUAK2 (human) = NUAK2 (human) (UniProt Q9H093)
PBK (human) = PBK (human) (UniProt Q96KB5)
PIM1 (human) = PIM1 (human) (UniProt P11309)
PKN1 (human) = PKN1 (human) (UniProt Q16512)
PNCK (human) = PNCK (human) (UniProt Q6P2M8)
PRKCD (human) = PRKCD (human) (UniProt Q05655)
PRKCH (human) = PRKCH (human) (UniProt P24723)
PRKX (human) = PRKX (human) (UniProt P51817)
ROCK1 (human) = ROCK1 (human) (UniProt Q13464)
RPS6KA1 KD1 KD2 (human) = RPS6KA1 KD1 KD2 (human) (UniProt Q15418)
RPS6KA2 KD1 KD2 (human) = RPS6KA2 KD1 KD2 (human) (UniProt Q15349)
STK10 (human) = STK10 (human) (UniProt O94804)
STK11 (human) = STK11 (human) (UniProt Q15831)
STK17A (human) = STK17A (human) (UniProt Q9UEE5)
TSSK2 (human) = TSSK2 (human) (UniProt Q96PF2)
[2] = molecular target: TYK2 JH1 catalytic (human) (UniProt P29597)
VRK1 (human) = VRK1 (human) (UniProt Q99986)

What does the source list for `c1ccc2c(-c3ccncc3)c[nH]c2c1`?
residual activity (AKT2 (human)): 96.4%; residual activity (BMX (human)): 95.8%; residual activity (CDK5 CDK5R1 p25 (human)): 92%; residual activity (CDK6 CCND3 (human)): 101%; residual activity (CHEK1 (human)): 104%; residual activity (CSNK1G2 (human)): 95%; residual activity (DYRK2 (human)): 77.5%; residual activity (EPHA5 (human)): 99.4%; residual activity (EPHA7 (human)): 98.2%; residual activity (EPHB3 (human)): 100%; residual activity (FYN (human)): 98.7%; residual activity (HCK (human)): 99.5%; residual activity (HIPK3 (human)): 107%; residual activity (MAP3K8 (human)): 99%; residual activity (MAP4K4 (human)): 54.4%; residual activity (MAPK3 (human)): 98.9%; residual activity (MARK3 (human)): 98%; residual activity (MARK4 (human)): 94.7%; residual activity (MATK (human)): 93.9%; residual activity (MELK (human)): 102%; residual activity (MET (human)): 91.4%; residual activity [1]: 75.5%; residual activity (MKNK2 (human)): 39.2%; residual activity (MST4 (human)): 104%; residual activity (NEK11 (human)): 76.9%; residual activity (NUAK2 (human)): 136%; residual activity (PBK (human)): 97.1%; residual activity (PIM1 (human)): 93.5%; residual activity (PKN1 (human)): 66.4%; residual activity (PNCK (human)): 98.5%; residual activity (PRKCD (human)): 83.2%; residual activity (PRKCH (human)): 84.9%; residual activity (PRKX (human)): 54.3%; residual activity (ROCK1 (human)): 84.2%; residual activity (RPS6KA1 KD1 KD2 (human)): 93.8%; residual activity (RPS6KA2 KD1 KD2 (human)): 89%; residual activity (STK10 (human)): 93.7%; residual activity (STK11 (human)): 90.7%; residual activity (STK17A (human)): 93%; residual activity (TSSK2 (human)): 96.9%; residual activity [2]: 101%; residual activity (VRK1 (human)): 101%

With `Cn1c2ccccc2c2c3c(c4c5ccccc5n(CCC#N)c4c21)CNC3=O` as the compound, how does the residual activity (AKT2 (human)) read?
Its residual activity is 110%.

And the residual activity (BMX (human))?
Its residual activity is 13.7%.

And the residual activity (CDK5 CDK5R1 p25 (human))?
Its residual activity is 21.3%.

And the residual activity (CDK6 CCND3 (human))?
Its residual activity is 52.1%.

What about the residual activity (CHEK1 (human)) of the same compound?
Its residual activity is 7.95%.

And the residual activity (CSNK1G2 (human))?
Its residual activity is 105%.

And the residual activity (DYRK2 (human))?
Its residual activity is 48.9%.

And the residual activity (EPHA5 (human))?
The residual activity was 88.2%.

What about the residual activity (EPHA7 (human)) of the same compound?
Its residual activity is 62.6%.

And the residual activity (EPHB3 (human))?
Its residual activity is 87.2%.

And the residual activity (FYN (human))?
The residual activity was 90.6%.

And the residual activity (HCK (human))?
The residual activity was 96.8%.

And the residual activity (HIPK3 (human))?
Its residual activity is 29.8%.

What about the residual activity (MAP3K8 (human)) of the same compound?
Its residual activity is 111%.

And the residual activity (MAP4K4 (human))?
The residual activity was 0.433%.

What about the residual activity (MAPK3 (human)) of the same compound?
Its residual activity is 72.6%.

What about the residual activity (MARK3 (human)) of the same compound?
The residual activity was 13.9%.

And the residual activity (MARK4 (human))?
Its residual activity is 10.8%.

What about the residual activity (MATK (human)) of the same compound?
The residual activity was 100%.

And the residual activity (MELK (human))?
Its residual activity is 21.1%.

And the residual activity (MET (human))?
The residual activity was 100%.

What about the residual activity [1] of the same compound?
Its residual activity is 75.2%.

And the residual activity (MKNK2 (human))?
The residual activity was 18%.

And the residual activity (MST4 (human))?
The residual activity was 89.8%.

And the residual activity (NEK11 (human))?
The residual activity was 110%.

What about the residual activity (NUAK2 (human)) of the same compound?
Its residual activity is 40.5%.

What about the residual activity (PBK (human)) of the same compound?
Its residual activity is 84.2%.

What about the residual activity (PIM1 (human)) of the same compound?
The residual activity was 36.1%.

And the residual activity (PKN1 (human))?
Its residual activity is 10.3%.

What about the residual activity (PNCK (human)) of the same compound?
Its residual activity is 103%.

What about the residual activity (PRKCD (human)) of the same compound?
The residual activity was 41.9%.

And the residual activity (PRKCH (human))?
Its residual activity is 35.3%.

And the residual activity (PRKX (human))?
The residual activity was 60.1%.

What about the residual activity (ROCK1 (human)) of the same compound?
Its residual activity is 61.9%.

And the residual activity (RPS6KA1 KD1 KD2 (human))?
The residual activity was 9.7%.

What about the residual activity (RPS6KA2 KD1 KD2 (human)) of the same compound?
Its residual activity is 0.299%.

And the residual activity (STK10 (human))?
Its residual activity is 20.1%.

And the residual activity (STK11 (human))?
The residual activity was 31.8%.

And the residual activity (STK17A (human))?
The residual activity was 85.3%.

And the residual activity (TSSK2 (human))?
Its residual activity is 74.3%.

And the residual activity [2]?
Its residual activity is 2.62%.

And the residual activity (VRK1 (human))?
Its residual activity is 84%.

From the kinase profiling compilation of Christmann-Franck et al. (2016)
